Structures can show the parent of a compound that is named as a salt.
Tested on: not given
Test: not given
Conditions: not given

| Structure (SMILES) | melting point |
| --- | --- |
| Clc1cccc2c1CN(c1ccncc1)CC2 (as salt: fumarate) [Example 26, 8-Chloro-2-pyridin-4-yl-1,2,3,4-tetrahydro-isoquinoline] | 178 to 179 °C |
| Cc1cc(N2CCc3ccccc3C2)cc(NCCO)n1 (as salt: fumarate) [Example 35, 2-[4-(3,4-Dihydro-1H-isoquinolin-2-yl)-6-methyl-pyridin-2-yl-amino]-ethanol] | 160 °C |
| Nc1cc(N2CCc3ccccc3C2)nc2c1CCCC2 (as salt: hydrochloride) [Example 7, 2-(3,4-Dihydro-1H-isoquinolin-2-yl)-5,6,7,8-tetrahydro-quinolin-4-yl-amine] | 109 to 110 °C |
| CN1COCc2c1ccnc2N1CCc2ccccc2C1 (as salt: hydrochloride) [Example 14, 5-(3,4-Dihydro-1H-isoquinolin-2-yl)-1-methyl-1,4-dihydro-2H-pyrido[4,3-d][1,3]oxazine] | 220 to 221 °C |
| Clc1cccc2c1CCN(c1ccncc1)C2 (as salt: hydrochloride) [Example 25, 5-Chloro-2-pyridin-4-yl-1,2,3,4-tetrahydro-isoquinoline] | 258 to 259 °C |
| Clc1ccc2c(c1)CCN(c1ccncc1)C2 (as salt: hydrochloride) [Example 27, 6-Chloro-2-pyridin-4-yl-1,2,3,4-tetrahydro-isoquinoline] | > 250 °C |
| Clc1ccc2c(c1)CN(c1ccncc1)CC2 (as salt: hydrochloride) [Example 28, 7-Chloro-2-pyridin-4-yl-1,2,3,4-tetrahydro-isoquinoline] | 100 to 101 °C |
| CCOC(=O)C(=O)Nc1cc(N2CCc3ccccc3C2)cc(C)n1 (as salt: hydrochloride) [Example 33, N-[4-(3,4-Dihydro-1H-isoquinolin-2-yl)-6-methyl-pyridin-2-yl]-oxalamic acid ethyl ester] | > 160 °C (dec.) |
| CC1CN(c2cc(N)ccn2)Cc2ccccc21 (racemic) (as salt: fumarate) [Example 2, Rac.-2-(4-Methyl-3,4-dihydro-1H-isoquinolin-2-yl)-pyridin-4-yl-amine] | 178 to 179 °C |
| CC1CN(c2ccncc2)Cc2ccccc21 (racemic) (as salt: hydrochloride) [Example 29, rac.-4-Methyl-2-pyridin-4-yl-1,2,3,4-tetrahydro-isoquinoline] | 224 to 227 °C |
| Cc1cc(N2CCc3ccccc3C2)cc(NC(=O)CO)n1 [Example 34, N-[4-(3,4-Dihydro-1H-isoquinolin-2-yl)-6-methyl-pyridin-2-yl]-2-hydroxy-acetamide] | 160 to 162 °C |

The remaining lines, values ahead:

| melting point | Structure (SMILES) |
| --- | --- |
| 73 to 74 °C | CCNc1ccnc(N2CCc3ccccc3C2)c1 (as salt: fumarate) [Example 16, [2-(3,4-Dihydro-1H-isoquinolin-2-yl)-pyridin-4-yl]-ethyl-amine] |
| 155 to 156 °C | Cc1cc(N2CCc3ccccc3C2)ccn1 (as salt: fumarate) [Example 31, 2-(2-Methyl-pyridin-4-yl)-1,2,3,4-tetrahydro-isoquinoline] |
| > 270 °C | Cc1cc(N2CCc3ccccc3C2)cc(N)n1 (as salt: fumarate) [Example 32, 4-(3,4-Dihydro-1H-isoquinolin-2-yl)-6-methyl-pyridin-2-yl-amine] |
| 192 to 195 °C | NCc1cccc(N2CCc3ccccc3C2)n1 (as salt: hydrochloride) [Example 22, C-[6-(3,4-Dihydro-1H-isoquinolin-2-yl)-pyridin-2-yl]-methylamine] |
| 160 to 161 °C | Nc1cc(N2CCc3ccccc3C2)ccn1 [Example 30, 4-(3,4-Dihydro-1H-isoquinolin-2-yl)-pyridin-2-yl-amine] |

Target: T1, NMDA-receptor subtype 2B (Rattus norvegicus, UniProt P35439+Q00960)
T1 construct: Membranes were prepared by homogenization of the whole brain minus cerebellum and medulla oblongata; from tissue; host or cells: rat whole brain minus cerebellum and medulla oblongata (membranes)
T1 sequence (Q00960 27-1482, other chains not shown): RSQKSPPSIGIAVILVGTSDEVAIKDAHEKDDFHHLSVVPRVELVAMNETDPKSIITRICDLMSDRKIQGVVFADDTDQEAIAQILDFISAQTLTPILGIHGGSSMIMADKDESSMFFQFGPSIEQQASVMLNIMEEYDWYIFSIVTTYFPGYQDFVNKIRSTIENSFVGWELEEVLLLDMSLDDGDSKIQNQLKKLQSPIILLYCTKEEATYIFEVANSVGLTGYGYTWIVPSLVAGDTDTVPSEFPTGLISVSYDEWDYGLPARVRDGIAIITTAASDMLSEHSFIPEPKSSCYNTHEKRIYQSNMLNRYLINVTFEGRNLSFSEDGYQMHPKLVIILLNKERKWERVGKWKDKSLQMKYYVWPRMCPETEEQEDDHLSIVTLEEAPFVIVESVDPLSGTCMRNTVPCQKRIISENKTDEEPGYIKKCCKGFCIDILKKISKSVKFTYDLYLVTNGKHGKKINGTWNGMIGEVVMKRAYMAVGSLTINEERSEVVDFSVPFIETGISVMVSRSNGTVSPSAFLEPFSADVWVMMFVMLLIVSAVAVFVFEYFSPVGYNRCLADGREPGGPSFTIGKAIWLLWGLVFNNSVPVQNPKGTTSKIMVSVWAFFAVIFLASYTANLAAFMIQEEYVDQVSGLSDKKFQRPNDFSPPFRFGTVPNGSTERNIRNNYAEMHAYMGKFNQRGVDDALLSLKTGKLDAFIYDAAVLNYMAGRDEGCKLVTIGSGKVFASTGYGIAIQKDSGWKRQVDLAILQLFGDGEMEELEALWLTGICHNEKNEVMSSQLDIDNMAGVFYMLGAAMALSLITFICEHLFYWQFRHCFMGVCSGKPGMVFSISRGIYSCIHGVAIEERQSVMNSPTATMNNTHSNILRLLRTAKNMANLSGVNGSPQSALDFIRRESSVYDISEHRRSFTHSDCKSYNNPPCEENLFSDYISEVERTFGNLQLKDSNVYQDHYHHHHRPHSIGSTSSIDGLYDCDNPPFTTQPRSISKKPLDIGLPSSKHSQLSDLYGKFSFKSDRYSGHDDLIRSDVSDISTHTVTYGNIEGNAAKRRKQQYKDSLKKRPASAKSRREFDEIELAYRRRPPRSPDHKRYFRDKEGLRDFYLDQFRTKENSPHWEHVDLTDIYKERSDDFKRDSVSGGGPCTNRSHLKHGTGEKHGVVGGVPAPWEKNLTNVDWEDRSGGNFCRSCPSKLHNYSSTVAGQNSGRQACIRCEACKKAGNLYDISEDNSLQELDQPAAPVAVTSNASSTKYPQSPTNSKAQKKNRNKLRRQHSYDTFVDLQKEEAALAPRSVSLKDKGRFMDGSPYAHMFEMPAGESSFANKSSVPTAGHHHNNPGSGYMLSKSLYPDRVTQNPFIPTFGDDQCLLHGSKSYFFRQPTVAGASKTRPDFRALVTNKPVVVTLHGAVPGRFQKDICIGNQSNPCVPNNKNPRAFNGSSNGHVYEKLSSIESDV
Test: 3H-Ro 25-6981 binding (displacement) on rat brain membranes
Conditions: displacement of 5 nM 3H-Ro 25-6981, rat whole brain minus cerebellum and medulla oblongata membranes, 2 hours at 4° C., pH 7.4
Procedure: ^3H-Ro 25-6981 binding (Ro 25-6981 is [R-(R*,S*)]-α-(4-hydroxy-phenyl)-β-methyl-4-(phenyl-methyl)-1-piperidine propanol)
Male Füllinsdorf albino rats weighing between 150-200 g were used. Membranes were prepared by homogenization of the whole brain minus cerebellum and medulla oblongata with a Polytron (10.000 rpm, 30 seconds), in 25 volumes of a cold Tris-HCl 50 mM, EDTA 10 mM, pH 7.1 buffer. The homogenate was centrifuged at 48,000 g for 10 minutes at 4° C. The pellet was resuspended using the Polytron in the same volume of buffer and the homogenate was incubated at 37° C. for 10 minutes. After centrifugation the pellet was homogenized in the same buffer and frozen at −80° C. for at least 16 hours but not more than 10 days. For the binding assay the homogenate was thawed at 37° C., centrifuged and the pellet was washed three times as above in a Tris-HCl 5 mM, pH 7.4 cold buffer. The final pellet was resuspended in the same buffer and used at a final concentration of […].
^3H-Ro 25-6981 binding experiments were performed using a Tris-HCl 50 mM, pH 7.4 buffer. For displacement experiments 5 nM of ^3H-Ro 25-6981 were used and non specific binding was measured using 10 mM of tetrahydroisoquinoline and usually it accounts for 10% of the total. The incubation time was 2 hours at 4° C. and the assay was stopped by filtration on Whatmann GF/B glass fiber filters (Unifilter-96, Packard, Zurich, Switzerland). The filters were washed 5 times with cold buffer. The radioactivity on the filter was counted on a Packard Top-count microplate scintillation counter after addition of […] of microscint 40 (Canberra Packard S. A., Züirich, Switzerland).
The above procedure was performed to determine data for calculation of an IC50 value. The IC50 value is a concentration expressed in micromoles (μM) for a test compound at which 50% of the ligand (in this determination, ^3H-Ro 25-6981) bonded to the receptor is displaced. The binding ability of the compounds of the invention was measured in vitro using a minimum of 10 concentrations and repeated at least once. The specific binding at each concentration was then calculated as the % of the maximum specific binding (100%) obtained in the same experiment, in the absence of a test compound. Competitive displacement of ^3H-Ro 25-6981 was observed, with complete displacement of the radioligand from specific binding sites (usually about 0% of specific binding at the highest concentrations tested). An IC50 value was then calculated with all the ten datapoints (% of specific bound) by plotting the data on a semilogarithmic scale with a sigmoidal fit (Log of the molar concentration on X-axis vs. % of specific bound on the Y-axis) using Microsoft Excel fit software or Microcal Origin software. The pooled normalized values were analyzed using a non-linear regression calculation program which provide IC50 with their relative upper and lower 95% confidence limits.

| Structure (SMILES) | IC50 |
| --- | --- |
| CCOC(=O)C(=O)Nc1cc(N2CCc3ccccc3C2)cc(C)n1 [Example 33, N-[4-(3,4-Dihydro-1H-isoquinolin-2-yl)-6-methyl-pyridin-2-yl]-oxalamic acid ethyl ester] | 20 nM |
| Cc1cc(N2CCc3ccccc3C2)cc(NCCO)n1 [Example 35, 2-[4-(3,4-Dihydro-1H-isoquinolin-2-yl)-6-methyl-pyridin-2-yl-amino]-ethanol] | 4 nM |

The remaining lines, values ahead:

| IC50 | Structure (SMILES) |
| --- | --- |
| 8 nM | Nc1ccnc(N2CCc3ccccc3C2)c1 [Example 1, 2-(3,4-Dihydro-1H-isoquinolin-2-yl)-pyridin-4-yl-amine] |
| 11 nM | Cc1cnc(N2CCc3ccccc3C2)cc1N [Example 3, 2-(3,4-Dihydro-1H-isoquinolin-2-yl)-5-methyl-pyridin-4-yl-amine] |
| 14 nM | Cc1cc(N)cc(N2CCc3ccccc3C2)n1 [Example 4, 2-(3,4-Dihydro-1H-isoquinolin-2-yl)-6-methyl-pyridin-4-yl-amine] |
| 5.3 nM | CCc1cc(N)cc(N2CCc3ccccc3C2)n1 [Example 5, 2-(3,4-Dihydro-1H-isoquinolin-2-yl)-6-ethyl-pyridin-4-yl-amine] |
| 11 nM | Nc1cc(CO)nc(N2CCc3ccccc3C2)c1 [Example 6, [4-Amino-6-(3,4-dihydro-1H-isoquinolin-2-yl)-pyridin-2-yl]-methanol] |
| 6 nM | OCCNc1ccnc(N2CCc3ccccc3C2)c1 [Example 9, 2-[2-(3,4-Dihydro-1H-isoquinolin-2-yl)-pyridin-4-yl-amino]-ethanol] |
| 11 nM | Cc1cc(NCCO)cc(N2CCc3ccccc3C2)n1 [Example 10, 2-[2-(3,4-Dihydro-1H-isoquinolin-2-yl)-6-methyl-pyridin-4-yl-amino]-ethanol] |
| 4 nM | Nc1cc(N2CCc3ccccc3C2)ccn1 [Example 30, 4-(3,4-Dihydro-1H-isoquinolin-2-yl)-pyridin-2-yl-amine] |
| 20 nM | Cc1cc(N2CCc3ccccc3C2)ccn1 [Example 31, 2-(2-Methyl-pyridin-4-yl)-1,2,3,4-tetrahydro-isoquinoline] |
| 11 nM | Cc1cc(N2CCc3ccccc3C2)cc(N)n1 [Example 32, 4-(3,4-Dihydro-1H-isoquinolin-2-yl)-6-methyl-pyridin-2-yl-amine] |

— patent US6831087B2, “Pyridine substituted isoquinoline derivatives” (Hoffmann-La Roche Inc., priority 2001, dated 2004)
